# Test results published in US9422335B2, “Modified toll-like receptor 2 (TLR2) ligands as inhibitors of neutrophil recruitment” (priority 2011, dated 2016).
# Entries after “also recorded” stand apart in the source; their conditions may differ.
# Columns and labels:
# [1] = system: neutrophil emigration into the cremaster tissue; assay: Intravital microscopy of cremaster muscle after intrascrotal injection; assay type: in vivo, mice; conditions: for effect of antagonist pretreatment on LTA and GML inhibition of TNFα-induced neutrophil recruitment: 0.5 μg, 1.5 hr pre-treatment; for inhibitory properties toward LPS-induced neutrophil emigration: LPS 10 ng/g plus ligand 5 ng/g, 4.5 hours; for neutrophil recruitment induced by the ligand itself: wild-type mice, intrascrotal injection, 4.5 hr
# Description: Intravital microscopy was performed on male mice, anaesthetized with an intraperitoneal injection of a 10 mg/kg xylazine (Bayer) and 200 mg/kg ketamine hydrochloride (Rogar/STB). The left jugular vein was cannulated to administer additional anaesthetic when necessary. An incision in the scrotal skin exposed the left cremaster muscle, which was then carefully dissected free of the associated fascia. The cremaster muscle was cut longitudinally with a cautery pen. The testicle and the epididymis were then separated from the underlying muscle and were moved into the abdominal cavity. The muscle was held flat on an optically clear viewing pedestal and was secured along the edges with 4-0 suture. The exposed tissue was superfused with 37° C.-warmed bicarbonate-buffered saline (pH 7.4). An upright microscope (Mikron; Carl Zeiss) was used to examine the cremasteric microcirculation and a video camera (XR/MEGA10-AM or XR/MEGA10 Panasonic) and DVD recorder were used to capture images. Three to five cremasteric venules (25 to 40 μm in diameter) were analysed during playback analysis. A leukocyte was considered to be adherent if it remained stationary for at least 30 seconds, and total leukocyte adhesion was quantified as the number of adherent cells within a 100-μm length of venule. Leukocyte emigration was defined as the number of cells in the extravascular space within the field of view adjacent to the observed venule.
# [2] = system: MIP2-induced neutrophil emigration; assay: Intravital microscopy of exteriorized cremaster superfused with MIP2; assay type: in vivo, mice; conditions: 0.5 μg, 1.5 hr pre-treatment; superfusion 60 min
# Description: Intravital microscopy was performed on male mice, anaesthetized with an intraperitoneal injection of a 10 mg/kg xylazine (Bayer) and 200 mg/kg ketamine hydrochloride (Rogar/STB). The left jugular vein was cannulated to administer additional anaesthetic when necessary. An incision in the scrotal skin exposed the left cremaster muscle, which was then carefully dissected free of the associated fascia. The cremaster muscle was cut longitudinally with a cautery pen. The testicle and the epididymis were then separated from the underlying muscle and were moved into the abdominal cavity. The muscle was held flat on an optically clear viewing pedestal and was secured along the edges with 4-0 suture. The exposed tissue was superfused with 37° C.-warmed bicarbonate-buffered saline (pH 7.4). An upright microscope (Mikron; Carl Zeiss) was used to examine the cremasteric microcirculation and a video camera (XR/MEGA10-AM or XR/MEGA10 Panasonic) and DVD recorder were used to capture images. Three to five cremasteric venules (25 to 40 μm in diameter) were analysed during playback analysis. A leukocyte was considered to be adherent if it remained stationary for at least 30 seconds, and total leukocyte adhesion was quantified as the number of adherent cells within a 100-μm length of venule. […]
# [3] = system: bone marrow-derived macrophages; assay: Internalization of FITC-FSL1/GML; assay type: cell-based, mice
# Description: Bone marrow-derived macrophages were isolated from wild-type and TLR2−/− mice and cultured on glass coverslips. The cells were incubated on ice for 10 min in the presence of 10 μg/mL FITC-FSL1 or FITC-GML to allow ligands binding and then returned to 37° C. for 60 min. Cells were then fixed for 10 minutes in 4.5% paraformaldehyde and stained for the golgi marker Giantin (1:250, Abcam), and imaged using confocal microscopy.
# [4] = severe sepsis; decreased from about 31%; cited from earlier work
Molecule,effect of antagonist pretreatment on LTA and GML inhibition of TNFα-induced neutrophil recruitment [1],effect of antagonist pretreatment on LTA and GML inhibition of MIP2-induced neutrophil recruitment [2],inhibitory properties toward LPS-induced neutrophil emigration [1],neutrophil recruitment induced by the ligand itself [1],further results
O=C(Nc1ccccc1)c1cc([N+](=O)[O-])ccc1Cl [GW9662],abrogated the inhibitory effect of both LTA and GML,abrogated the inhibitory effect of both LTA and GML,,,
O=C(Nc1ccncc1)c1cc([N+](=O)[O-])ccc1Cl [T0070907],abrogated the inhibitory effect of both LTA and GML,abrogated the inhibitory effect of both LTA and GML,,,
FSL1,,,,,"internalization / localization of FITC-labelled ligand ([3]; in the absence of TLR2): substantially inhibited with regard to internalization; localization of internalized FITC-labelled ligand ([3]; wild-type macrophages, 60 min, Giantin stain): much smaller vesicles, which did not co-localize with Giantin"
Pam2CSK4,,,did not exhibit any inhibitory properties,pro-inflammatory,
Pam3CSK4,,,did not exhibit any inhibitory properties,pro-inflammatory; also recorded: causes significant neutrophil recruitment into the cremaster tissue,
drotrecogin alfa,,,,,mortality [4]: about 25%
